The values that follow come from article PMC3551932, “STK295900, a Dual Inhibitor of Topoisomerase 1 and 2, Induces G2 Arrest in the Absence of DNA Damage” (PLoS ONE, 2013).

The IC50 is the midpoint of a concentration-inhibition curve. A lower IC50 goes with inhibition by little substance.

The subject of one assay is DNA gyrase. As to conditions: targeting DNA gyrase; cited from earlier work.
Another assay has as its system K-562 cells. Kind of assay: Cell growth inhibition assay, K-562. Type of assay: cell-based. As to conditions: Homo sapiens, K562, 96 h; Table 1; K-562, leukemia; growth up to 4 days. An excerpt:
(§1) Human epitheloid cervical carcinoma HeLa cells, human breast adenocarcinoma MCF7 and MDA-MB-231cells, human hepatocellular carcinoma HepG2 cells, human colon adenocarcinoma HT-29 cells, and human colorectal carcinoma HCT-116 cells were purchased from ATCC® and maintained in DMEM medium. Human prostate carcinoma PC-3 cells (purchased from ATCC®), human gastric carcinoma SNU-484 and SNU-601(obtained from Korean Cell Line Bank (KCLB)), human leukemia K-562 and HL-60 cells (purchased from ATCC®), immortalized human prostate epithelial 267B1cells, and immortalized human embryonic lung fibroblast MRC5CV1 cells were maintained in RPMI 1640 medium whereas immortalized retinal pigment epithelial hTERT RPE-1 cells (purchased from ATCC®) were maintained in DMEM/F12 medium. All cell lines were cultured in media supplemented with 10% fetal bovine serum, 100 U/ml penicillin, and […] streptomycin at 37°C in a 5% CO2 incubator.
(§2) Cells were seeded at the appropriate amount (1–2×10^3 cells) in triplicate in 96-well plates for 24 h and then treated with various concentrations of STK295900. Cell growth was determined by using EZ-CyTox cell viability assay kit (Daeil Lab. Service, Seoul, Korea). Ten microliters of WST solution were added to the treated cells at 24, 48, 72, and 96 h. Cells were further incubated at 37°C for 2 h and the absorbance was measured at 450 nm.

In the next assay the test system is HepG2 cells. Put plainly: Cell growth inhibition assay, HepG2. As to conditions: Homo sapiens, HepG2, 96 h, growth up to 4 days. Type of assay: cell-based, human.
Excerpt: as §1, §2

The test system of a further assay is HeLa cells. Put plainly: Mitotic index (Hoechst 33342 staining, mitotic cells counted). Format: cell-based, human. As to conditions: various concentrations, 24 h. An excerpt:
Given its strong growth inhibitory effect on various cancer cell types, STK295900 was examined to determine its effect on cell cycle distribution using flow cytometry analysis. […] We then analyzed whether the increasing G2/M population in Fig. 2A is indeed G2 or M phase by determining the mitotic index and investigating the cell cycle regulatory proteins. To determine mitotic index, the treated cells were stained with Hoechst 33342 and then mitotic cells were counted. […] (A) Flow cytometric analysis for cell cycle distribution. HeLa cells were treated with the indicated concentrations of STK295900 for 24 h. Treated cells were then stained with propidium iodide (PI) and processed for cell cycle analysis. The bar graph represents the mean percentage of each cell cycle phase ± SD from three independent experiments. * = p<0.05 versus the respective G1, S, or G2/M phase of DMSO-treated cells. […] HeLa cells were treated with the indicated concentrations of STK295900 for 24 h. Cells were then stained with Hoechst 33342 and mitotic cells were counted. […] (C) Cell cycle related proteins expression.

The subject of the next assay is MRC5CV1 cells. Kind of assay: Cell growth inhibition assay, MRC5CV1. As to conditions: Homo sapiens, 96 h; Table 2 comparison; MRC5CV1, non-cancer; growth up to 4 days. Format: cell-based, human.
Excerpt: as §1, §2

Another assay relates to HT-29 cells. Put plainly: Cell growth inhibition assay, HT-29. Type of assay: cell-based, human. As to conditions: Homo sapiens, HT-29, 96 h, growth up to 4 days.
Excerpt: as §1, §2

The test system of a further assay is HL-60 cells. Put plainly: Cell growth inhibition assay, HL-60. Type of assay: cell-based. As to conditions: Homo sapiens, 96 h; Table 1; HL-60, leukemia; growth up to 4 days.
Excerpt: as §1, §2

The subject of a further assay is MCF7 cells. Kind of assay: Cell growth inhibition assay, MCF7. Format: cell-based, human. As to conditions: Homo sapiens, MCF7, 96 h, growth up to 4 days.
Excerpt: as §1, §2

For the next assay, the system named is 267B1 cells. Kind of assay: Cell growth inhibition assay, 267B1. Type of assay: cell-based, human. As to conditions: Homo sapiens, 96 h; Table 2 comparison; 267B1, non-cancer; growth up to 4 days.
Excerpt: as §1, §2

Another assay relates to PC-3 cells. Kind of assay: Cell growth inhibition assay, PC-3. Type of assay: cell-based. As to conditions: Homo sapiens, 96 h; Table 1; PC-3, prostate carcinoma; growth up to 4 days.
Excerpt: as §1, §2

The next assay has as its system MDA-MB-231 cells. Put plainly: Cell growth inhibition assay, MDA-MB-231. Format: cell-based. As to conditions: Homo sapiens, 96 h; Table 1; MDA-MB-231, breast adenocarcinoma; growth up to 4 days.
Excerpt: as §1, §2

Assay [1] concerns the target T1, calf thymus topoisomerase 1 (Bos taurus, UniProt F1MN93).
T1 construct: purified calf thymus topoisomerase 1; purchased Takara Bio, Shiga, Japan; host or cells: calf thymus (tissue-purified)
T1 sequence (F1MN93 1-767): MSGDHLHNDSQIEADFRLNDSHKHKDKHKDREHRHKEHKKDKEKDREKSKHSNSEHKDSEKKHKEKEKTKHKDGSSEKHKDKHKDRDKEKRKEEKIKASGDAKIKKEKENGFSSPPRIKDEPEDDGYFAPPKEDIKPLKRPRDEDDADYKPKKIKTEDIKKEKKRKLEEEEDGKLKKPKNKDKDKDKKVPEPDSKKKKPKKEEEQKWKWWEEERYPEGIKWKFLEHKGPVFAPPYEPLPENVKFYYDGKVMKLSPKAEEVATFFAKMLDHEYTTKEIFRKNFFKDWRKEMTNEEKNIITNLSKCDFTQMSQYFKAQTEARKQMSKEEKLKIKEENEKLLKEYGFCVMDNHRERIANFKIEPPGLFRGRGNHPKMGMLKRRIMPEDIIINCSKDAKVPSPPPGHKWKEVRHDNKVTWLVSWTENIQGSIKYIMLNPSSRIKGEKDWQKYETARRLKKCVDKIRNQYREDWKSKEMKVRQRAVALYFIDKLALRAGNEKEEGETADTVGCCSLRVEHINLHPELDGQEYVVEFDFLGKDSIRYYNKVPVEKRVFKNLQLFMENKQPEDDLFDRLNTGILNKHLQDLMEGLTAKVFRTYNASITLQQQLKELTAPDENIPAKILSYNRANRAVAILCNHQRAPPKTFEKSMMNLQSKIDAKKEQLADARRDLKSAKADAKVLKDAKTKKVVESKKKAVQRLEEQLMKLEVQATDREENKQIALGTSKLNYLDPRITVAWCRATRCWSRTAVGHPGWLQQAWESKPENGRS
Kind of assay: Supercoiled DNA relaxation assay for topoisomerase 1. Type of assay: biochemical.

The subject of assay [2] is cancer (HeLa, MCF7, HepG2, and HT-29) and non-cancerous cell lines (hTERT RPE-1, 267B1, and MRC5CV1). Kind of assay: Cell growth inhibition assay, cancer and non-cancerous cell lines compared. Format: cell-based, human. As to conditions: cancer (HeLa, MCF7, HepG2, HT-29) vs non-cancer (hTERT RPE-1, 267B1, MRC5CV1).
Excerpt: as §1, §2

For the compound `Nc1ccc(-c2nc3ccc(-c4ccc5nc(-c6ccc(N)cc6)[nH]c5c4)cc3[nH]2)cc1` [STK295900, 4,4′-(3H,3′H-5,5′-bibenzimidazole-2,2′-diyl)dianiline], in the assay with DNA gyrase, the anti-staphylococcal activity entry is “potent anti-staphylococcal agent”. Also, the half-maximal inhibitory concentration (IC50) in the assay on K-562 cells came out at 1.38 µM; with HepG2 cells (Table 1, HepG2, hepatocellular carcinoma) it was 0.17 µM; in the assay with HepG2 cells (Table 2 comparison, HepG2), 0.14 µM; in the assay with MRC5CV1 cells it was 0.95 µM; in the assay with HT-29 cells (Table 1, HT-29, colon adenocarcinoma) it was 0.27 µM; in the assay with HT-29 cells (Table 2 comparison, HT-29), 0.21 µM. Further, the IC50 in the assay with HL-60 cells was 0.5 µM; with MCF7 cells (Table 1, MCF7, breast adenocarcinoma), 0.06 µM; in the assay on MCF7 cells (Table 2 comparison, MCF7), 0.04 µM; in the assay on 267B1 cells, 1.61 µM; with PC-3 cells, 2.72 µM; with MDA-MB-231 cells it was 0.51 µM. Moreover, the mitotic index entry in the assay with HeLa cells is “no significant change in mitotic index”. Also, in [1] (high concentrations (50 and 100 µM)), the “supercoiled DNA at high concentrations (Top 1 catalytic activity)” value was “supercoiled DNA could be observed”. For the same compound, the “Top 1-mediated DNA relaxation” value in assay [1] (pBR322, 37°C, 30 min, various concentrations) was “inhibited DNA relaxation activity of Top 1 in a dose-dependent manner”. Also, the “selectivity of toxicity, cancer versus non-cancer cells” value in assay [2] is on record as “selective toxicity against cancer cells”.
